Results from US20220062299A1, “USE OF GLUCOCORTICOID STEROIDS IN PREVENTING AND TREATING CONDITIONS OF MUSCLE WASTING, AGING AND METABOLIC DISORDER” (NORTHWESTERN UNIVERSITY, priority 2018, published 2022).

System: Wildtype (WT) mice fed high-fat chow
Assay: Diet-induced obesity, wildtype mice on high-fat chow, 8 weeks
Type: in vivo, mouse
Experimental: Glucose was measured in blood (first drop from tail venipuncture) or serum (5 μl of 1:2 dilution) with an AimStrip Plus glucometer system (Germaine Laboratories, San Antonio, Tex.) and expressed as mg/dl values. Lactate was measured in blood (second drop from tail venipuncture) or serum (5 μl of 1:2 dilution) with a Lactate Plus reader (Nova Biomedical, Waltham, Mass.) and expressed as mM values. Fasting glycemia was measured in mice after 4 hours fasting (7 AM-11 AM). Glucose, insulin and pyruvate tolerance tests were conducted after 4 hours fasting in individual cages immediately after baseline fasting glucose monitoring. Mice were injected with either 1 g/kg glucose (#D8375-1 g; Millipore Sigma, St Louis, Mo.), or 0.5 U/kg insulin (#12585014; Thermo Fisher, Waltham, Mass.), or 2.5 g/kg pyruvate (#P5280-25 g; Millipore Sigma, St Louis, Mo.) in 200 μl intraperitoneal injections, and glucose was then monitored by tail venipuncture at 10 min, 20 min, 30 min, 60 min, 120 min after injection. All glucose and pyruvate tolerance tests were conducted blinded to treatment groups.
MRI scan. Magnetic resonance imaging (MRI) scans to determine fat and lean mass ratios (% of total body weight) were conducted in non-anesthetized, non-fasted mice at 2 PM using the EchoMRI-100H Whole Body Composition analyzer (EchoMRI, Houston, Tex.). Mice were weighed immediately prior to MRI scan. Before each measurement session, system was calibrated using the standard internal calibrator tube (canola oil). Mice were typically scanned in sample tubes dedicated to mice comprised between 20 g and 40 g body mass. Data were collected through built-in software EchoMRI version 140320. Data were analyzed when hydration ratio >85%. MRI scans were conducted blinded to treatment groups.
Muscle function, whole-body plethysmography, echocardiography. Forelimb grip strength was monitored using a meter (Cat #1027SM; Columbus Instruments, Columbus, Ohio) blinded to treatment groups. Animals performed ten pulls with 5 seconds rest on a flat surface between pulls. Immediately before sacrifice, in situ tetanic force from tibialis anterior muscle was measured using a Whole Mouse Test System (Cat #1300A; Aurora Scientific, Aurora, ON, Canada) with a 1N dual-action lever arm force transducer (3000-LR, Aurora Scientific, Aurora, ON, Canada) in anesthetized animals (0.8 I/min of 1.5% isoflurane in 100% O2). Tetanic isometric contraction was induced with following specifications: initial delay, 0.1 sec; frequency, 200 Hz; pulse width, 0.5 msec; duration, 0.5 sec; using 100 mA stimulation (Quattrocelli et al., 2015). Length was adjusted to a fixed baseline of 50 mN resting tension for all muscles/conditions. Fatigue analysis was conducted by repeating tetanic contractions every 10 seconds until complete exhaustion of the muscle (50 cycles). Time of contraction was assessed as time to max tetanic value within the 0.0-0.5 sec range of each tetanic contraction, while time of relaxation was assessed as time to 90% min tetanic value within the 0.5-0.8 sec range of every tetanus. […] Data was recorded for a total of 15 minutes broken into 3 consecutive 5-minute periods. […] Cardiac function was assessed by echocardiography, which was conducted under anesthesia (0.8 L/min of 1.5% vaporized isoflurane in 100% O2) on mice between 2 and 5 days before sacrifice. […]

For `C[C@]12C=CC(=O)C=C1CC[C@@H]1[C@@H]2C(=O)C[C@@]2(C)[C@H]1CC[C@]2(O)C(=O)CO` [prednisone, Prednisone], the “gain of hyperglycemia (fasting blood glucose over time)” value (weekly prednisone) was “reduced”, the lean mass retention (weekly prednisone) was “improved” and the “gain of body weight and fat mass” value (weekly prednisone 1 mg/kg i.p., vs vehicle) was “slightly but significantly reduced”. The “body-wide glucose homeostasis (glucose and insulin tolerance tests)” value (weekly prednisone, endpoint) was “improved” and the “grip strength, tetanic force production and aerobic exercise capacity” value (weekly prednisone, endpoint) was “improved”.
